Source: PubChem BioAssay AID328 (DTP/NCI, 2004)
Several values for one entry are separate records, joined by “and”; a condition that tells them apart may be missing. Equal values may be shown once. Inconclusive results and toxic doses are left out.

Test system: BDF1 mice, P388 leukemia ip, median survival T/C
Test: NCI In Vivo Anticancer Drug Screen. Data for tumor model P388 Leukemia (intraperitoneal) in B6D2F1 (BDF1) mice
Conditions: endpoint: median survival time, higher = longer survival
Outline: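 Steps: implant the tumour, treat one group with compound and another with vehicle, record survival, then divide treated by control.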

[1] = dose: 25.0 mg/kg/injection, schedule: Q01DX009 (ip), vehicle: saline with Tween-80
[2] = dose: 50.0 mg/kg/injection, schedule: Q01DX009 (ip), vehicle: saline with Tween-80

## CC(CCC/C=C/CCCN(C)C(=N)N)CC(C)C1OC(=O)C(C)C(O)/C=C/C(C)C(O)C(C)C(O)C(C)C(O)CCCC(O)CC2(O)OC(CC(OC(=O)CC(=O)O)CC(O)CC(O)C(C)C(O)/C=C/C=C/C1C)CC(O)C2O (stereo not given)
dose: 1.8 mg/kg/injection, schedule: Q01DX009 (ip), vehicle: saline with Tween-80
  T/C: 124 % of control
dose: 1.82 mg/kg/injection, schedule: Q04DX003 (ip), vehicle: saline
  T/C: 90 % of control
dose: 2.5 mg/kg/injection, schedule: Q01DX001 (ip), vehicle: saline
  T/C: 109 % of control
dose: 3.65 mg/kg/injection, schedule: Q01DX009 (ip), vehicle: saline with Tween-80
  T/C: 116 % of control
dose: 3.65 mg/kg/injection, schedule: Q04DX003 (ip), vehicle: saline
  T/C: 109 % of control
dose: 5.0 mg/kg/injection, schedule: Q01DX001 (ip), vehicle: saline
  T/C: 100 % of control
dose: 7.3 mg/kg/injection, schedule: Q01DX009 (ip), vehicle: saline with Tween-80
  T/C: 104 % of control
dose: 7.3 mg/kg/injection, schedule: Q04DX003 (ip), vehicle: saline
  T/C: 104 % of control
dose: 10.0 mg/kg/injection, schedule: Q01DX001 (ip), vehicle: saline
  T/C: 109 % of control
dose: 10.0 mg/kg/injection, schedule: Q04DX003 (ip), vehicle: saline
  T/C: 100 % of control

## C=C(C)C12OC3(c4ccccc4)OC1C1C4OC4(CO)C(O)C4(O)C(=O)C(C)=CC4C1(O3)C(C)C2O (stereo not given)
dose: 25.0 micrograms/kg/injection, schedule: Q01DX009 (ip), vehicle: saline + alcohol
  T/C: 95 % of control and 102 % of control
dose: 50.0 micrograms/kg/injection, schedule: Q01DX009 (ip), vehicle: saline + alcohol
  T/C: 93 % of control
dose: 100.0 micrograms/kg/injection, schedule: Q01DX009 (ip), vehicle: saline + alcohol
  T/C: 107 % of control
dose: 200.0 micrograms/kg/injection, schedule: Q01DX009 (ip), vehicle: saline + alcohol
  T/C: 103 % of control and 110 % of control
dose: 800.0 micrograms/kg/injection, schedule: Q01DX009 (ip), vehicle: saline + alcohol
  T/C: 116 % of control
dose: 1600.0 micrograms/kg/injection, schedule: Q01DX009 (ip), vehicle: saline + alcohol
  T/C: 106 % of control

## O=[N+]([O-])c1ccc(Sc2ccc(Cl)cc2)c2c1no[n+]2[O-]
dose: 15.0 mg/kg/injection, schedule: Q01DX009 (ip), vehicle: saline with Tween-80
  T/C: 112 % of control
dose: 30.0 mg/kg/injection, schedule: Q01DX009 (ip), vehicle: saline with Tween-80
  T/C: 112 % of control
dose: 60.0 mg/kg/injection, schedule: Q01DX009 (ip), vehicle: saline with Tween-80
  T/C: 112 % of control

## CC(=O)ON(CC(=O)OCc1ccccc1)C(C)=O
dose: 12.5 mg/kg/injection, schedule: Q01DX009 (ip), vehicle: other
  T/C: 100 % of control
dose: 25.0 mg/kg/injection, schedule: Q01DX009 (ip), vehicle: other
  T/C: 102 % of control
dose: 50.0 mg/kg/injection, schedule: Q01DX009 (ip), vehicle: other
  T/C: 118 % of control
dose: 100.0 mg/kg/injection, schedule: Q01DX009 (ip), vehicle: other
  T/C: 102 % of control
dose: 200.0 mg/kg/injection, schedule: Q01DX009 (ip), vehicle: other
  T/C: 100 % of control

## O=[N+]([O-])/C=C/c1ccc([N+](=O)[O-])cc1Cl
dose: 12.5 mg/kg/injection, schedule: Q01DX009 (ip), vehicle: Klucel (hydroxypropylcellulose) (HPC)
  T/C: 109 % of control
dose: 25.0 mg/kg/injection, schedule: Q01DX009 (ip), vehicle: Klucel (hydroxypropylcellulose) (HPC)
  T/C: 109 % of control
dose: 25.0 mg/kg/injection, schedule: Q04DX003 (ip), vehicle: Klucel (hydroxypropylcellulose) (HPC)
  T/C: 115 % of control
dose: 50.0 mg/kg/injection, schedule: Q01DX009 (ip), vehicle: Klucel (hydroxypropylcellulose) (HPC)
  T/C: 104 % of control
dose: 50.0 mg/kg/injection, schedule: Q04DX003 (ip), vehicle: Klucel (hydroxypropylcellulose) (HPC)
  T/C: 107 % of control
dose: 100.0 mg/kg/injection, schedule: Q04DX003 (ip), vehicle: Klucel (hydroxypropylcellulose) (HPC)
  T/C: 88 % of control

## NC(C/[N+]([O-])=N/O)C(=O)O (stereo not given)
dose: 15.6 mg/kg/injection, schedule: Q04DX003 (ip), vehicle: saline
  T/C: 118 % of control
dose: 15.6 mg/kg/injection, schedule: Q04DX003 (ip), vehicle: water
  T/C: 118 % of control
dose: 25.0 mg/kg/injection, schedule: Q01DX010 (ip), vehicle: other
  T/C: 150 % of control
dose: 25.0 mg/kg/injection, schedule: Q01DX010 (ip), vehicle: saline
  T/C: 122 % of control
dose: 31.3 mg/kg/injection, schedule: Q04DX003 (ip), vehicle: saline
  T/C: 122 % of control
dose: 50.0 mg/kg/injection, schedule: Q01DX010 (ip), vehicle: other
  T/C: 150 % of control
dose: 100.0 mg/kg/injection, schedule: Q01DX010 (ip), vehicle: other
  T/C: 165 % of control
dose: 125.0 mg/kg/injection, schedule: Q04DX003 (ip), vehicle: water
  T/C: 168 % of control
dose: 173.0 mg/kg/injection, schedule: Q04DX003 (ip), vehicle: sodium bicarbonate
  T/C: 161 % of control and 171 % of control
dose: 200.0 mg/kg/injection, schedule: Q01DX010 (ip), vehicle: saline
  T/C: 100 % of control
dose: 250.0 mg/kg/injection, schedule: Q04DX003 (ip), vehicle: saline
  T/C: 172 % of control
dose: 250.0 mg/kg/injection, schedule: Q04DX003 (ip), vehicle: water
  T/C: 181 % of control
dose: 288.0 mg/kg/injection, schedule: Q04DX003 (ip), vehicle: sodium bicarbonate
  T/C: 161 % of control and 172 % of control
dose: 480.0 mg/kg/injection, schedule: Q04DX003 (ip), vehicle: sodium bicarbonate
  T/C: 190 % of control and 192 % of control
dose: 500.0 mg/kg/injection, schedule: Q04DX003 (ip), vehicle: saline
  T/C: 181 % of control
dose: 500.0 mg/kg/injection, schedule: Q04DX003 (ip), vehicle: water
  T/C: 177 % of control
dose: 800.0 mg/kg/injection, schedule: Q04DX003 (ip), vehicle: sodium bicarbonate
  T/C: 116 % of control

## CCOC(=O)N1C=Cn2c(cnc2C)C1OCC (stereo not given)
dose: 100.0 mg/kg/injection, schedule: Q04DX003 (ip), vehicle: saline
  T/C: 102 % of control
dose: 200.0 mg/kg/injection, schedule: Q04DX003 (ip), vehicle: saline
  T/C: 112 % of control
dose: 400.0 mg/kg/injection, schedule: Q04DX003 (ip), vehicle: saline
  T/C: 116 % of control

## Cc1ccc(S(=O)(=O)Nc2ccc([N+](=O)[O-])cc2[N+](=O)[O-])cc1
[1]
  T/C: 95 % of control
[2]
  T/C: 92 % of control

## O=C(Nc1cccc(S(=O)(=O)F)c1)c1ccc(COc2ccc([N+](=O)[O-])cc2Cl)cc1
dose: 100.0 mg/kg/injection, schedule: Q01DX009 (ip), vehicle: saline with Tween-80
  T/C: 91 % of control
dose: 200.0 mg/kg/injection, schedule: Q01DX009 (ip), vehicle: saline with Tween-80
  T/C: 91 % of control

## O=[N+]([O-])[O-].OCCNCCNCC[OH2+].OCCNCCNCC[OH2+].[Cu+2]
dose: 6.25 mg/kg/injection, schedule: Q01DX009 (ip), vehicle: saline
  T/C: 97 % of control
dose: 12.5 mg/kg/injection, schedule: Q01DX009 (ip), vehicle: saline
  T/C: 100 % of control
dose: 25.0 mg/kg/injection, schedule: Q01DX009 (ip), vehicle: saline
  T/C: 88 % of control

## CCOC1=Cc2c(oc3c(C(C)(C)C)cc(OCC)cc23)OC(C(C)(C)C)=C1
dose: 3.12 mg/kg/injection, schedule: Q01DX009 (ip), vehicle: saline with Tween-80
  T/C: 112 % of control
dose: 6.25 mg/kg/injection, schedule: Q01DX009 (ip), vehicle: saline with Tween-80
  T/C: 122 % of control
dose: 12.5 mg/kg/injection, schedule: Q01DX009 (ip), vehicle: saline with Tween-80
  T/C: 122 % of control
[1]
  T/C: 100 % of control and 121 % of control
[2]
  T/C: 101 % of control

## COc1cc(C(=O)C=C(C(F)(F)F)C(F)(F)F)cc(OC)c1OC
dose: 50.0 mg/kg/injection, schedule: Q04DX003 (ip), vehicle: saline with Tween-80
  T/C: 120 % of control
dose: 100.0 mg/kg/injection, schedule: Q04DX003 (ip), vehicle: saline with Tween-80
  T/C: 120 % of control
dose: 200.0 mg/kg/injection, schedule: Q04DX003 (ip), vehicle: saline with Tween-80
  T/C: 100 % of control

## Cc1ccc(S(=O)(=O)NCCCCCC(=O)OCc2ccccc2)cc1
dose: 50.0 mg/kg/injection, schedule: Q01DX009 (ip), vehicle: saline
  T/C: 99 % of control
dose: 100.0 mg/kg/injection, schedule: Q01DX009 (ip), vehicle: saline
  T/C: 108 % of control
dose: 200.0 mg/kg/injection, schedule: Q01DX009 (ip), vehicle: saline
  T/C: 100 % of control

## COc1cccc2c1C(=O)c1c(O)c3c(c(O)c1C2=O)CC(O)(C(=O)C(C)C)CC3OC1CC(N)C(O)C(C)O1 (stereo not given)
dose: 9.4 mg/kg/injection, schedule: Q04DX003 (ip), vehicle: water
  T/C: 107 % of control
dose: 18.8 mg/kg/injection, schedule: Q04DX003 (ip), vehicle: water
  T/C: 107 % of control
dose: 37.5 mg/kg/injection, schedule: Q04DX003 (ip), vehicle: water
  T/C: 116 % of control
dose: 75.0 mg/kg/injection, schedule: Q04DX003 (ip), vehicle: water
  T/C: 90 % of control

## O=CC12Cc3ccccc3C1CCC1(C2)OCCO1 (stereo not given)
dose: 100.0 mg/kg/injection, schedule: Q04DX003 (ip), vehicle: saline sonified
  T/C: 90 % of control
dose: 200.0 mg/kg/injection, schedule: Q04DX003 (ip), vehicle: saline sonified
  T/C: 110 % of control
dose: 400.0 mg/kg/injection, schedule: Q04DX003 (ip), vehicle: saline sonified
  T/C: 110 % of control
